The compounds below were run against ROCK2 (Homo sapiens, UniProt O75116) (assay: ROCK assay: phosphorylation of FITC peptide substrate, LABCHIP 3000 mobility shift). Details: 5 μM ATP, 1.5 μM peptide substrate; read-out: ROCK2 Activity (ROCK IC50 range).
Format: biochemical
In short: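 Rho kinase variant phosphorylates 1.5 μM FITC-AHA-AKRRRLSSLRA-OH with 5 μM ATP in 20 mM HEPES pH 7.5, 20 mM MgCl2, 0.015% Brij-35, 4 mM DTT, DMSO <2%. EDTA stops the reaction, and phospho and non-phospho peptides are resolved by LabChip 3000 mobility shift. IC50 from dose-response curve fit.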

ROCK2, sequence (O75116 whole entry, species assumed): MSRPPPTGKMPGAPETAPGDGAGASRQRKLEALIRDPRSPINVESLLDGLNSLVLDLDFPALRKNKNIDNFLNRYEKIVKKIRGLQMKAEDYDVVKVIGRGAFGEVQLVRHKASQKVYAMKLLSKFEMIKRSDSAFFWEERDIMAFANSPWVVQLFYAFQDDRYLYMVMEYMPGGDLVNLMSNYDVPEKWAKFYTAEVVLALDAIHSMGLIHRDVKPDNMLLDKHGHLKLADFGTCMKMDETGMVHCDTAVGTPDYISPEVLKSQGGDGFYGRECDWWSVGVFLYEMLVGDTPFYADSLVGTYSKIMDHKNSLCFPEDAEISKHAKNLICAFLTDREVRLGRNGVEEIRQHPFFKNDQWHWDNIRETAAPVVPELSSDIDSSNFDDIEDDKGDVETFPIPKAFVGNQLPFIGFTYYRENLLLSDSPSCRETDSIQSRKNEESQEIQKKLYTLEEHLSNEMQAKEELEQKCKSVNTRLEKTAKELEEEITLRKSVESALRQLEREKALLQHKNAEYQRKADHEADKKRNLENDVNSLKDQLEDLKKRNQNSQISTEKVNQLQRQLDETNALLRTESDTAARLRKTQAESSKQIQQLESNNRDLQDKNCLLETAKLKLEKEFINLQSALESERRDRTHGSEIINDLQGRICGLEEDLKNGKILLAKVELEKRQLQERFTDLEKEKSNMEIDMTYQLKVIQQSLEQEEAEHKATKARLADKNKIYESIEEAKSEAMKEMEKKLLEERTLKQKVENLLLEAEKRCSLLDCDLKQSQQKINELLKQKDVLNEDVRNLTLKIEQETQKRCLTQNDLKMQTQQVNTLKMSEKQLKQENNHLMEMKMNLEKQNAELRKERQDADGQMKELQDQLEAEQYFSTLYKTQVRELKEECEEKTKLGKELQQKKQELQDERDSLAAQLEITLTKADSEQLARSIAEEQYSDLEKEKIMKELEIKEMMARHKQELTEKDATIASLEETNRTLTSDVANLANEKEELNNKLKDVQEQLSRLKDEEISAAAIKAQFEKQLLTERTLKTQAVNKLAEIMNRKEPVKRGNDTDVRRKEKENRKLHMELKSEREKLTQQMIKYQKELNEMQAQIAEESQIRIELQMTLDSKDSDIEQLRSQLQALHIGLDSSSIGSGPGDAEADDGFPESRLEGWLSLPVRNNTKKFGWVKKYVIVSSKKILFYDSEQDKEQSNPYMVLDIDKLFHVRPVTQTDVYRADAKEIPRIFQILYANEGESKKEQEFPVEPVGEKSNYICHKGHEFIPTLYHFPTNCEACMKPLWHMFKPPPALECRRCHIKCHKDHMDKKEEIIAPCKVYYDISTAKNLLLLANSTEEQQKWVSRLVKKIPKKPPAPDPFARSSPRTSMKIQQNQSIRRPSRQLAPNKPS

SMILES | IC50
O=C(NC1CC2(C1)CC(c1n[nH]c(=O)c3ccccc13)C2)c1cnn2cc(-n3cncn3)ccc12 (stereo not drawn) [Example 178, N-((αR)-6-(4-oxo-3,4-dihydrophthalazin-1-yl)spiro[3.3]heptan-2-yl)-6-(1H-1,2,4-triazol-1-yl)pyrazolo[1,5-α]pyridine-3-carboxamide] | 2.01 to 5 nM
COCCOc1ccc2c(C(=O)NC3CC4(C3)CC(c3n[nH]c(=O)c5ccccc35)C4)cnn2c1 (stereo not drawn) [Example 179, 6-(2-methoxyethoxy)-N-((αR)-6-(4-oxo-3,4-dihydrophthalazin-1-yl)spiro[3.3]heptan-2-yl)pyrazolo[1,5-α]pyridine-3-carboxamide] | 0.2 to 2 nM
O=C(NC1CC2(C1)CC(c1n[nH]c(=O)c3ccccc13)C2)c1cnn2cc(-n3ccc(=O)cc3)ccc12 (stereo not drawn) [Example 180, N-((αR)-6-(4-oxo-3,4-dihydrophthalazin-1-yl)spiro[3.3]heptan-2-yl)-6-(4-oxopyridin-1(4H)-yl)pyrazolo[1,5-α]pyridine-3-carboxamide] | 15.1 to 100 nM
[H][C@]1(c2n[nH]c(=O)c3ccccc32)C[C@]2(C[C@@H](NC(=O)c3cnn4cc(OCCO)ccc34)C2)C1 (some centres unmarked) [Example 181] | 0.2 to 2 nM
O=C(N[C@H]1CC2(C1)C[C@H](c1n[nH]c(=O)c3ccccc31)C2)c1cnn2cc(OCCN3CC(F)C3)ccc12 (stereo partly drawn) [Example 182, 6-(2-(3-fluoroazetidin-1-yl)ethoxy)-N-((aR)-6-(4-oxo-3,4-dihydrophthalazin-1-yl)spiro[3.3]heptan-2-yl)pyrazolo[1,5-a]pyridine-3-carboxamide] | 2.01 to 5 nM
CN(C)CCOc1ccc2c(C(=O)NC3CC4(C3)CC(c3n[nH]c(=O)c5ccccc35)C4)cnn2c1 [Example 183, 6-(2-(dimethylamino)ethoxy)-N-((aR)-6-(4-oxo-3,4-dihydrophthalazin-1-yl)spiro[3.3]heptan-2-yl)pyrazolo[1,5-a]pyridine-3-carboxamide] | 2.01 to 5 nM
CC1(C)CN(CCOc2ccc3c(C(=O)NC4CC5(C4)CC(c4n[nH]c(=O)c6ccccc46)C5)cnn3c2)CCC1O [Example 184, 6-(2-(4-hydroxy-3,3-dimethylpiperidin-1-yl)ethoxy)-N-((aR)-6-(4-oxo-3,4-dihydrophthalazin-1-yl)spiro[3.3]heptan-2-yl)pyrazolo[1,5-a]pyridine-3-carboxamide] | 0.2 to 2 nM
O=C(NC1CC2(C1)CC(c1n[nH]c(=O)c3ccccc13)C2)c1cnn2cc(OCCN3CCC(F)(F)C3)ccc12 [Example 185, 6-(2-(3,3-difluoropyrrolidin-1-yl)ethoxy)-N-((aR)-6-(4-oxo-3,4-dihydrophthalazin-1-yl)spiro[3.3]heptan-2-yl)pyrazolo[1,5-a]pyridine-3-carboxamide] | 0.2 to 2 nM
O=C(NC1CC2(C1)CC(c1n[nH]c(=O)c3ccccc13)C2)c1cnn2cc(OCCN3CCC3)ccc12 [Example 186, 6-(2-(azetidin-1-yl)ethoxy)-N-((aR)-6-(4-oxo-3,4-dihydrophthalazin-1-yl)spiro[3.3]heptan-2-yl)pyrazolo[1,5-a]pyridine-3-carboxamide] | 2.01 to 5 nM
CC1(C)CN(CCOc2ccc3c(C(=O)NC4CC5(C4)CC(c4n[nH]c(=O)c6ccccc46)C5)cnn3c2)CCO1 [Example 187, 6-(2-(2,2-dimethylmorpholino)ethoxy)-N-((aR)-6-(4-oxo-3,4-dihydrophthalazin-1-yl)spiro[3.3]heptan-2-yl)pyrazolo[1,5-a]pyridine-3-carboxamide] | 0.2 to 2 nM
CN1CCN(CCOc2ccc3c(C(=O)NC4CC5(C4)CC(c4n[nH]c(=O)c6ccccc46)C5)cnn3c2)CC1 [Example 188, 6-(2-(4-methylpiperazin-1-yl)ethoxy)-N-((aR)-6-(4-oxo-3,4-dihydrophthalazin-1-yl)spiro[3.3]heptan-2-yl)pyrazolo[1,5-a]pyridine-3-carboxamide] | 0.2 to 2 nM
O=C(NC1CC2(C1)CC(c1n[nH]c(=O)c3ccccc13)C2)c1cnn2cc(OCCN3CCC(F)C3)ccc12 [Example 189, 6-(2-((R)-3-fluoropyrrolidin-1-yl)ethoxy)-N-((aR)-6-(4-oxo-3,4-dihydrophthalazin-1-yl)spiro[3.3]heptan-2-yl)pyrazolo[1,5-a]pyridine-3-carboxamide] | 0.2 to 2 nM
O=C(NC1CC2(C1)CC(c1n[nH]c(=O)c3ccccc13)C2)c1cnn2cc(OCCN3CCC(F)C3)ccc12 [Example 190, 6-(2-((S)-3-fluoropyrrolidin-1-yl)ethoxy)-N-((aR)-6-(4-oxo-3,4-dihydrophthalazin-1-yl)spiro[3.3]heptan-2-yl)pyrazolo[1,5-a]pyridine-3-carboxamide] | 0.2 to 2 nM
O=C(N[C@H]1CC2(C1)C[C@H](c1n[nH]c(=O)c3ccccc31)C2)c1cnn2cc(CCCN3CCOCC3)ccc12 (stereo partly drawn) [Example 191, 6-(3-morpholinopropyl)-N-((aR)-6-(4-oxo-3,4-dihydrophthalazin-1-yl)spiro[3.3]heptan-2-yl)pyrazolo[1,5-a]pyridine-3-carboxamide] | 2.01 to 5 nM
O=C(NC1CC2(C1)CC(c1n[nH]c(=O)c3ccccc13)C2)c1cnn2cc(CCCN3CCCC3)ccc12 [Example 192, N-((aR)-6-(4-oxo-3,4-dihydrophthalazin-1-yl)spiro[3.3]heptan-2-yl)-6-(3-(pyrrolidin-1-yl)propyl)pyrazolo[1,5-a]pyridine-3-carboxamide] | 2.01 to 5 nM
CN(C)CCCc1ccc2c(C(=O)NC3CC4(C3)CC(c3n[nH]c(=O)c5ccccc35)C4)cnn2c1 [Example 193, 6-(3-(dimethylamino)propyl)-N-((aR)-6-(4-oxo-3,4-dihydrophthalazin-1-yl)spiro[3.3]heptan-2-yl)pyrazolo[1,5-a]pyridine-3-carboxamide] | 5.1 to 15 nM
O=C(NC1CC2(C1)CC(c1n[nH]c(=O)c3ccccc13)C2)c1cnn2cc(CCCNC3CC3)ccc12 (centres unmarked) [Example 194] | 5.1 to 15 nM
O=C(NC1CC2(C1)CC(c1n[nH]c(=O)c3ccccc13)C2)c1cnn2cc(CCCO)ccc12 [Example 195, 6-(3-hydroxypropyl)-N-((aR)-6-(4-oxo-3,4-dihydrophthalazin-1-yl)spiro[3.3]heptan-2-yl)pyrazolo[1,5-a]pyridine-3-carboxamide] | 5.1 to 15 nM
O=C(NC1CC2(C1)CC(c1n[nH]c(=O)c3ccccc13)C2)c1cnn2cc(CCCN3CCC(F)(F)CC3)ccc12 [Example 196, 6-(3-(4,4-difluoropiperidin-1-yl)propyl)-N-((aR)-6-(4-oxo-3,4-dihydrophthalazin-1-yl)spiro[3.3]heptan-2-yl)pyrazolo[1,5-a]pyridine-3-carboxamide] | 2.01 to 5 nM
O=C(NC1CC2(C1)CC(c1n[nH]c(=O)c3ccccc13)C2)c1cnn2cc(CCCN3CCC(F)(F)C3)ccc12 [Example 197, 6-(3-(3,3-difluoropyrrolidin-1-yl)propyl)-N-((aR)-6-(4-oxo-3,4-dihydrophthalazin-1-yl)spiro[3.3]heptan-2-yl)pyrazolo[1,5-a]pyridine-3-carboxamide] | 0.2 to 2 nM
CC(C)(O)CCc1ccc2c(C(=O)N[C@H]3CC4(C3)C[C@H](c3n[nH]c(=O)c5ccccc53)C4)cnn2c1 (stereo partly drawn) [Example 198, 6-(3-hydroxy-3-methylbutyl)-N-((aR)-6-(4-oxo-3,4-dihydrophthalazin-1-yl)spiro[3.3]heptan-2-yl)pyrazolo[1,5-a]pyridine-3-carboxamide] | 0.2 to 2 nM
O=C(N[C@H]1CC2(C1)C[C@H](c1n[nH]c(=O)c3ccccc31)C2)c1cnn2cc(CCC(O)(C(F)(F)F)C(F)(F)F)ccc12 (stereo partly drawn) [Example 199, N-((aR)-6-(4-oxo-3,4-dihydrophthalazin-1-yl)spiro[3.3]heptan-2-yl)-6-(4,4,4-trifluoro-3-hydroxy-3-(trifluoromethyl)butyl)pyrazolo[1,5-a]pyridine-3-carboxamide] | 2.01 to 5 nM
O=C(N[C@H]1CC2(C1)C[C@H](c1n[nH]c(=O)c3ccccc31)C2)c1cnn2cc(CN3CCOCC3)ccc12 (stereo partly drawn) [Example 200, 6-(morpholinomethyl)-N-((aR)-6-(4-oxo-3,4-dihydrophthalazin-1-yl)spiro[3.3]heptan-2-yl)pyrazolo[1,5-a]pyridine-3-carboxamide] | 5.1 to 15 nM
CN1CCN(Cc2ccc3c(C(=O)NC4CC5(C4)CC(c4n[nH]c(=O)c6ccccc46)C5)cnn3c2)CC1 [Example 201, 6-((4-methylpiperazin-1-yl)methyl)-N-((aR)-6-(4-oxo-3,4-dihydrophthalazin-1-yl)spiro[3.3]heptan-2-yl)pyrazolo[1,5-a]pyridine-3-carboxamide] | 2.01 to 5 nM
O=C(NC1CC2(C1)CC(c1n[nH]c(=O)c3ccccc13)C2)c1cnn2cc(CN3CCCCC3)ccc12 [Example 202, N-((aR)-6-(4-oxo-3,4-dihydrophthalazin-1-yl)spiro[3.3]heptan-2-yl)-6-(piperidin-1-ylmethyl)pyrazolo[1,5-a]pyridine-3-carboxamide] | 5.1 to 15 nM
CN(C)Cc1ccc2c(C(=O)NC3CC4(C3)CC(c3n[nH]c(=O)c5ccccc35)C4)cnn2c1 [Example 203, 6-((dimethylamino)methyl)-N-((aR)-6-(4-oxo-3,4-dihydrophthalazin-1-yl)spiro[3.3]heptan-2-yl)pyrazolo[1,5-a]pyridine-3-carboxamide] | 5.1 to 15 nM
O=C(NC1CC2(C1)CC(c1n[nH]c(=O)c3ccccc13)C2)c1cnn2cc(Cc3ccccc3)ccc12 [Example 204, 6-benzyl-N-((aR)-6-(4-oxo-3,4-dihydrophthalazin-1-yl)spiro[3.3]heptan-2-yl)pyrazolo[1,5-a]pyridine-3-carboxamide] | 0.2 to 2 nM
O=C(NC1CC2(C1)CC(c1n[nH]c(=O)c3ccccc13)C2)c1cnn2cc(CCC(=O)N3CCOCC3)ccc12 [Example 205, 6-(3-morpholino-3-oxopropyl)-N-((aR)-6-(4-oxo-3,4-dihydrophthalazin-1-yl)spiro[3.3]heptan-2-yl)pyrazolo[1,5-a]pyridine-3-carboxamide] | 2.01 to 5 nM
O=C(NC1CC2(C1)CC(c1n[nH]c(=O)c3ccccc13)C2)c1cnn2cc(CCC(F)(F)F)ccc12 [Example 206, N-((aR)-6-(4-oxo-3,4-dihydrophthalazin-1-yl)spiro[3.3]heptan-2-yl)-6-(3,3,3-trifluoropropyl)pyrazolo[1,5-a]pyridine-3-carboxamide] | 0.2 to 2 nM
